Source: publication PMC10850954, “HDAC6/aggresome processing pathway importance for inflammasome formation is context-dependent” (The Journal of Biological Chemistry, 2024)

Molecular target: T1, HDAC6 (Homo sapiens, UniProt Q9UBN7)
T1 sequence (Q9UBN7 1-1215): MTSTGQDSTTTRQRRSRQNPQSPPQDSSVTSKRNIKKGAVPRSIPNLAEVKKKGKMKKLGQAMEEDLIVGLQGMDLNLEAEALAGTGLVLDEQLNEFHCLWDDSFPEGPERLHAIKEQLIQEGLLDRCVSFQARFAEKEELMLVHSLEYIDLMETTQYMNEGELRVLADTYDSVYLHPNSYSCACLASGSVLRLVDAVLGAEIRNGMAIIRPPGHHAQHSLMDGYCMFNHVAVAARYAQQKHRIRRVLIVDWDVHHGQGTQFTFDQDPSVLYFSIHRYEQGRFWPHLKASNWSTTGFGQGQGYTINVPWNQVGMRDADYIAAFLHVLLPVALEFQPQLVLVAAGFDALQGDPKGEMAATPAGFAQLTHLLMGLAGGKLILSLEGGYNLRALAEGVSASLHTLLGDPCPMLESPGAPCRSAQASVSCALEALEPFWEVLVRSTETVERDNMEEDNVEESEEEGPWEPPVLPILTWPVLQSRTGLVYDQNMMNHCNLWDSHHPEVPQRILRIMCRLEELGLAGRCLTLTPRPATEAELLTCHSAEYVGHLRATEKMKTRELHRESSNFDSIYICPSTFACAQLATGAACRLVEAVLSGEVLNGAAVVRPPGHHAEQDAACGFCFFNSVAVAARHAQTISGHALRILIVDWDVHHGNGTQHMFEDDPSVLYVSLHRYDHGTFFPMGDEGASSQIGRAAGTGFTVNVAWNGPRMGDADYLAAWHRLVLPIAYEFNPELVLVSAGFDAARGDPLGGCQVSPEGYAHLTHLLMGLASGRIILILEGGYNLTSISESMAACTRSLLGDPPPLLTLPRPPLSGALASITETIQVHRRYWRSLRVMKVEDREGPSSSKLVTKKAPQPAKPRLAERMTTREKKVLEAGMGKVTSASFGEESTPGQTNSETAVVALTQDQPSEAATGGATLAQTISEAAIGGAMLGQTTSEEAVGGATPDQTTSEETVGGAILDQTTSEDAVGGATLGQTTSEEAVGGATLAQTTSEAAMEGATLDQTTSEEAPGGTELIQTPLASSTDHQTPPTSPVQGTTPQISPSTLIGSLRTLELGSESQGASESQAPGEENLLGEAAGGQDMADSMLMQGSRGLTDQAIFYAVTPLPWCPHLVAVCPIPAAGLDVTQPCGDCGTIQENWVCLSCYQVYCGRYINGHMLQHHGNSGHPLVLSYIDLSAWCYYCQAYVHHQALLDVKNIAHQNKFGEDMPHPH
Assay: HDAC6 degradation in PBMCs (immunoblot)
Assay type: cell-based
Design: endogenous in cells; host or cells: PBMCs (with or without LPS priming)
Settings: XY-07-35 at 1 μM
Description: Figure 3 Effect of […] mediated HDAC6 degradation on NLRP3 inflammasome activation in PBMCs.A, schematic of the mode of action of an HDAC6 degrader. The PROTAC engages both HDAC6 and the E3 ligase cereblon (CRBN), which then leads to ubiquitination and degradation of HDAC6. B, chemical structure of the HDAC6 degrader XY-07-35 and of the negative control XY-07-191 which no longer recruits CRBN. C, in vitro enzymatic assay of compound XY-07-35 on the activity of different HDACs. IC50 for each enzyme is shown. D, XY-07-35 mediated HDAC6 degradation in PBMCs. PBMCs (without or with LPS priming for 4 h) were treated with the indicated compounds and HDAC6 levels were detected by immunoblotting with an anti-HDAC6 antibody. Detection of actin was used as a control for loading. CGP, CGP084892 (Caspase-1 inhibitor); AFN700 is an inhibitor of the NF-kB pathway (IKK inhibitor). E, HDAC6 degradation impact on IL-1β release in PBMCs following MSU 200 μg/ml (5 h), nigericin 2 μM (2 h) or ATP 3 mM (0.5 h) treatment. Cells were first primed with 0.2 ng/ml LPS for 4 h at 37 °C, then treated with MSU, nigericin, and ATP as indicated. […]
Treated BMDM cells were lysed with RIPA buffer (supplied with cOmplete Protease Inhibitor Cocktail, Merck#11697498001), and protein concentration was determined by Bradford assay. […]

| Compound | HDAC6 degradation / effect on HDAC6 levels |
| --- | --- |
| CN(C(=O)CCCNc1cccc2c1C(=O)N(C1CCC(=O)NC1=O)C2=O)c1ccc(NC(=O)CCCCCCC(=O)NO)cc1 (centres unmarked) [XY-07-35] | efficiently degraded |
| CN1C(=O)CCC(N2C(=O)c3cccc(NCCCC(=O)N(C)c4ccc(NC(=O)CCCCCCC(=O)NO)cc4)c3C2=O)C1=O (centres unmarked) [XY-07-191] | only minimal or no effect on HDAC6 levels |
